pKi: −log10 of the molar value.
What was measured:
[1] = molecular target: T1, human neutrophil elastase (HNE) (Homo sapiens, UniProt P08246); experiment: HNE Ki of CE compounds, tested as described in WO 96/16080; assay type: biochemical; details: read-out: HNE Ki
T1 sequence (P08246 30-267): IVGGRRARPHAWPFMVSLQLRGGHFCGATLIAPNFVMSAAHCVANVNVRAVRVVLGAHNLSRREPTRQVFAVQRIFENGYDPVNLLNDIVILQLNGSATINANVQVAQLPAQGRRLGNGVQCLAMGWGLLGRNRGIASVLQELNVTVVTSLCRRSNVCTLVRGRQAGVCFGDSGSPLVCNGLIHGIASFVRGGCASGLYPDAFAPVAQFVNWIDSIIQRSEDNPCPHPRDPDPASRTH

[2] = tested on: polymorphoneucleocyte (PMN); experiment: Extracellular Matrix (ECM) degradation assay; assay type: cell-based; details: PMN's stimulated with opsonized zymosan, 4 hr at 37° C.; for ECM DATA % Inhibition 1 uM / inhibition at 1 µM: 1 uM inhibitor; for ECM DATA % Inhibition 5 uM / inhibition at 5 µM: 5 uM inhibitor
Description: Forty-eight well plates on which extracellular matrix had been established were supplied to Cortech by Dr. Simon's group at the State University of New York at Stony Brook. Briefly, the plates were prepared as follows: R22 rat heart smooth muscle cells were seeded into wells at 2.5×10^4 cells/cm. The cells were fed every 4 days with Eagle's Minimal Essential Media supplemented with fetal bovine serum, tryptose phosphate broth, cefotaxime and streptomycin. At confluence, daily supplements of 50 ug/ml ascorbic acid were added for 8 to 10 days during the synthesis of the ECM layer. [^35S]sulfate and [^3H]proline were also added to the culture media to incorporate radiolabel into the matrix. Cells were later lysed with 25 mM NH4OH. Plates were washed three times with water and once with phosphate-buffered saline containing 0.02% NaN3. Plates were stored at 4° C. until use.
Matrix degradation assays were performed as follows: 0.40 ml of Hanks balance salt solution (HBSS) containing 1 or 5 uM test inhibitor (final concentration; diluted from DMSO stock solution; <2% DMSO final concentration) was added to the wells. After 30 minutes, 50 ul of a polymorphoneucleocyte (PMN) suspension was added resulting in 5×10^5 cells/well. PMN's were stimulated with opsonized zymosan. Zymosan particles were washed and suspended in 0.5 ml human serum for 1 hr at 37° C., vortexing every 15 min. The particles were then washed three times with HBSS and added to wells at a ratio of 10 particles/PMN in a volume of 50 ul. After a 4 hr incubation at 37° C., a 100 ul aliquot of the supernatant was withdrawn for scintillation counting. Following removal of the remaining supernatant, the residual ECM was solubilized with 0.5 ml 2M NaOH. The amount of tritium in this solubilized ECM was accessed by scintillation. ECM degradation data are expressed as (soluble counts released/total ECM counts)—(basal counts released without PMN's/total ECM counts).

[3] = Blood level screening after oral dose; assay type: in vivo, Sprague-Dawley rats; details: rat, oral gavage 10 mg/kg; for concentration at 3 h: read-out: Plasma Levels (μM) 3 hr; for concentration at 1 h: read-out: Plasma Levels (μM) 1 hr
Description: The inhibitors were dissolved or suspended in polyethylene glycol (PEG), PEG-400 or PEG:H2O:EtOH at a concentration of 10 mg/ml. Unfasted male Sprague-Dawley rats were given an oral dose of this solution by gavage. Rats received 10 mg inhibitor/kg body weight in a volume of 1 ml/kg. After 1,3 or 6 hr., the rats were killed with an overdose of urethane (2.5 g/kg; i.p.) and the blood collected in a heparinized tube via cardiac puncture. Red blood cells were separated from the plasma by centrifugation.
Depending on the inhibitor, one of four organics (ethyl acetate, toluene, isopropyl ether or methyl t-butyl ether) was used to extract the compound from the plasma. Inhibitor concentrations were measured by HPLC or LC/MS analysis.

[4] = male, Sprague-Dawley, plasma, 1 hr

Row | Molecule | pKi [1] | concentration at 3 h ([3]; male, Sprague-Dawley, plasma) | other results
1 | Cc1ccc(C2=NCC(=O)N(CC(=O)N[C@H](C(=O)c3nnc(Cc4cccc(C)c4)o3)C(C)C)c3ccccc32)cc1 [CE2242, 2-Oxo-5-phenyl-1,4-(4′-methylbenzodiazepine)-N-[1-(2-[5-(3-methylbenzyl)-1,3,4-oxadiazolyl]carbonyl)-2-(S)-methylpropyl]acetamide] | 7.57 | – | ECM DATA % Inhibition 1 uM [2]: 29.4%; ECM DATA % Inhibition 5 uM [2]: 40.7%
2 | CC1=NC(N)C(=O)N(CC(=O)NC(C(=O)c2nnc(Cc3cccc(C)c3)o2)C(C)C)c2ccccc21 [CE2226, (R,S)-3-Amino-2-oxo-5-methyl-1,4-benzodiazepine-N-[1-(2-[5-(3-methylbenzyl)-1,3,4-oxadiazolyl]carbonyl)-2-(R,S)-methylpropyl]acetamide] | 7.99 | – | inhibition at 1 µM [2]: 27.6%; inhibition at 5 µM [2]: 52.2%
3 | Cc1cccc(Cc2nnc(C(=O)[C@@H](NC(=O)CN3C(=O)N(Cc4ccccc4)C(=O)[C@H]3Cc3ccccc3)C(C)C)o2)c1 [CE2151, 1-Benzyl-4-(R)-benzyl-2,5-imidazolidinedione-N-[1-(2-[5-(3-methylbenzyl)-1,3,4-oxadiazolyl]carbonyl)-2-(S)-methylpropyl]acetamide] | 7.23 | – | inhibition at 1 µM [2]: 14.2%; inhibition at 5 µM [2]: -8.3%
4 | Cc1cccc(Cc2nnc(C(=O)[C@@H](NC(=O)CN3C(=O)NC(c4ccncc4)(N4C(=O)CCC4=O)C3=O)C(C)C)o2)c1 (stereo partly drawn) [CE2206, [4-(R,S)-(4-pyridyl)-4-(R,S)-N-succinimidyl-1-2,5-imidazolidinedione-N-[1-2-[5-(3-methylbenzyl)-1,3,4-oxadiazolyl]carbonyl)-2-(S)-methylpropyl]acetamide] | 8.06 | – | ECM DATA % Inhibition 1 uM [2]: 47.4%; ECM DATA % Inhibition 5 uM [2]: 62.3%
5 | Cc1cccc(Cc2nnc(C(=O)C(NC(=O)CN3C(=O)CCc4ccccc43)C(C)C)o2)c1 (centres unmarked) [CE2088, 3,4-Dihydro-quinoline-2-one-N-[1-(2-[5-(3-methylbenzyl)-1,3,4-oxadiazolyl]carbonyl)-2-N-methylpropyl]acetamide] | 7.18 | 0.755 µM | concentration at 1 h [3, 4]: 0.801 µM
6 | Cc1cccc(Cc2nnc(C(=O)[C@@H](NC(=O)CN(Cc3ccccc3)C(=O)c3ccc[nH]3)C(C)C)o2)c1 [CE2164, (Pyrrole-2-carbonyl)-N-(benzyl)glycyl-N-[1-(2-[5-(3-methylbenzyl)-1,3,4-oxadiazolyl]carbonyl)-2-(S)-methylpropyl]amide] | 7.77 | 0.034 µM | –
7 | CCc1cccc(Cc2nnc(C(=O)[C@@H](NC(=O)CN3C(=O)NC(=Cc4cccnc4)C3=O)C(C)C)o2)c1 [CE2205, [4-(R)-(3-pyridylmethylene)]-2,5-imidazolidinedione-N-[1-(2-[5-(3-ethylbenzyl)-1,3,4-oxadiazolyl]carbonyl)-2-(S)-methylpropyl]acetamide] | 7.43 | – | Plasma Levels (μM) 3 hr [3]: 0.475 µM
8 | CC(C)[C@H](NC(=O)CN1C(=O)NC(=Cc2cccnc2)C1=O)C(=O)c1noc(Cc2cccc(C(F)(F)F)c2)n1 [CE2203, [4-(R)-(3-pyridylmethylene)]-2,5-imidazolidinedione-N-[1-(3-[5-(3-trifluoromethylbenzyl)-1,2,4-oxadiazolyl]carbonyl)-2-(S)-methylpropyl]acetamide] | 7.10 | – | Plasma Levels (μM) 3 hr [3]: 0.004 µM
9 | CC(C)[C@H](NC(=O)CN1C(=O)N[C@H](Cc2ccccc2)C1=O)C(=O)c1noc(Cc2cccc(C(F)(F)F)c2)n1 [CE2141, 5-(R)-Benzyl-2,4-imidazolidinedione-N-[1-(3-[5-(3-trifluoromethylbenzyl)-1,2,4-oxadiazolyl]carbonyl)-2-(S)-methylpropyl]acetamide] | 7.19 | – | Plasma Levels (μM) 3 hr [3]: 0.005 µM
10 | Cc1cccc(Cc2nnc(C(=O)[C@@H](NC(=O)CN3C(=O)CN(CCN4CCOCC4)C(=O)[C@H]3Cc3ccccc3)C(C)C)o2)c1 [CE2162, 4-[1-(2-N-Morpholino)ethyl-3-(R)-benzylpiperazine-2,5-dione]-N-[1-(2-[5-(3-methylbenzyl)-1,3,4-oxadiazolyl]carbonyl)-2-(S)-methylpropyl]acetamide] | 7.97 | 0.025 µM | –
11 | Cc1cccc(Cc2nnc(C(=O)C(NC(=O)Cn3c(=O)c(N)cc4ccccc43)C(C)C)o2)c1 (racemic) [CE2228, 3-(R,S)-Amino-quinolin-2-one-N-[1-(2-[5-(3-methylbenzyl)-1,3,4-oxadiazolyl]carbonyl)-2-(R,S)-methylpropyl]acetamide] | 7.40 | – | Plasma Levels (μM) 1 hr ([3]; 1 hr): 0.714 µM; Plasma Levels (μM) 3 hr [3]: 1.393 µM; Plasma Levels (μM) 6 hr ([3]; 6 hr): 0.409 µM

Stronger by pKi [1], values ahead:

Row | pKi [1] | concentration at 3 h ([3]; male, Sprague-Dawley, plasma) | Molecule | other results
12 | 8.15 | – | (R,S)-3-Amino-2-oxo-5-methyl-1,4-(1-thiophenodiazepine)-N-[1-(2-[5-(3-methylbenzyl)-1,3,4-oxadiazolyl]carbonyl)-2-(S)-methylpropyl]acetamide [CE2236] | ECM DATA % Inhibition 1 uM [2]: 31.9%; ECM DATA % Inhibition 5 uM [2]: 31.75%
13 | 9.03 | – | (R,S)-3-Amino-2-oxo-5-phenyl-1,4-(2′-chlorobenzodiazepine)-N-[1-(2-[5-(3-methylbenzyl)-1,3,4-oxadiazolyl]carbonyl)-2-(R,S)-methylpropyl]acetamide [CE2223] | ECM DATA % Inhibition 1 uM [2]: 34.15%; ECM DATA % Inhibition 5 uM [2]: 36.15%
14 | 9.40 | 0.011 µM | CC(C)[C@H](NC(=O)[C@@H]1Cc2ccccc2N1C(=O)[C@@H](NC(=O)OCc1ccccc1)C(C)C)C(=O)c1noc(Cc2cccc(C(F)(F)F)c2)n1 [CE2125, (Benzyloxycarbonyl)-L-valyl-2-L-(2,3-dihydro-1H-indole)-N-[1-(3-[5-(3-trifluoromethylbenzyl)-1,2,4-oxadiazolyl]carbonyl)-2-(S)-methylpropyl]amide] | –
15 | 9.04 | 0 µM | COC(=O)N[C@H](C(=O)N1CCC[C@H]1C(=O)N[C@H](C(=O)c1noc(Cc2cccc(C(F)(F)F)c2)n1)C(C)C)C(C)C [CE2214, Methyloxycarbonyl-L-valyl-N-[1-(3-[5-(3 trifluoromethylbenzyl)-1,2,4-oxadiazolyl]carbonyl)-2-(S)-methylpropyl]-L-prolinamide] | –
16 | 8.72 | 0.042 µM | CC(=O)N1CC(=O)N(CC(=O)N[C@H](C(=O)c2nnc(Cc3cccc(C)c3)o2)C(C)C)C(=Cc2ccccc2)C1=O [CE2099, 1-Acetyl-3-benzylidene piperazine-2,5-dione-N-[1-(2-[5-(3-methylbenzyl)-1,3,4-oxadiazolyl]carbonyl)-2-(S)-methylpropyl]acetamide] | –
17 | 8.66 | 0.021 µM | CC(C)[C@H](NC(=O)[C@@H]1CCCN1C(=O)[C@@H](NS(C)(=O)=O)C(C)C)C(=O)c1noc(Cc2cccc(C(F)(F)F)c2)n1 [CE2172, Methylsulfonyl-L-valyl-N-[1-(3-[5-(3-trifluoromethylbenzyl)-1,2,4-oxadiazolyl]carbonyl)-2-(S)-methylpropyl]-L-prolinamide] | –
18 | 9.82 | 0.44 µM | Cc1cccc(Cc2nnc(C(=O)[C@@H](NC(=O)CN(C(=O)[C@@H](NC(=O)OCc3ccccc3)C(C)C)c3ccccc3)C(C)C)o2)c1 [CE2232, Benzyloxycarbonyl-L-valyl-N-(phenyl)glycyl-N-[1-(2-[5-(3-methylbenzyl)-1,3,4-oxadiazolyl]carbonyl)-2-(S)-methylpropyl]amide] | concentration at 1 h [3, 4]: 0.44 µM; concentration at 6 h ([3]; male, Sprague-Dawley, plasma, 6 hr, read-out: Plasma Levels (μM) 6 hr): 0.26 µM

From patent publication US6656911B2, “Serine protease inhibitors” (Cortech, Inc., priority 1994, dated 2003)
